Reference: patent US20250074905A1, “AKT3 MODULATORS” (Georgiamune Inc., priority 2021, published 2025)

Test system: Foxp3 induction in CD4 conventional T cells (iTreg induction)
Assay: Foxp3 induction assay
Format: cell-based, C57/B16 mice
Conditions: T-cell, 72 h; mouse CD4 Tconvs, anti-CD3/anti-CD28, IL2, TGF-β, 3 days of culture, flow cytometry; read-out: IC50 value as measured by the Foxp3 induction assay
Description: Sorted or enriched (Miltenyi magnetic separation) CD4 conventional T cells (Tconvs −CD4+/CD25) from C57/B16 mice were used for the induction of iTregs. A 10 µg/mL plate-bound anti-CD3 antibody (50 ul per well for 96-well plate), […] of soluble anti-CD28 antibody, 100 IU/mL of IL2 and 5 ng/mL of TGF-β in absence or presence of different concentrations of drug (usually titrating from 0.01 uM to 10 uM) were used. As negative control for induction, samples without TGF-β were used.
After 3 days of culture in presence of stimulation, TGF-β and drug, cells were stained with fixable live/dead cell stain (Life Technologies, NY) for gating and exclusion of toxic doses. The mouse Foxp3 buffer kit was used to fix and permeabilize cells according to the manufacturer's instructions (BD Bioscience, San Jose, CA). The anti-CD4 antibody and anti-Foxp3 antibody were used to stain the cells. After staining, cells were acquired using flow cytometer.

IC50: < 1000 nM
SMILES: O=C(Nc1ccc2c(c1)Nc1ccncc1CC2)c1ccc(Nc2ccncc2)cc1 [Compound 1, N-(10,11-dihydro-5H-benzo[b]pyrido[3,4-f]azepin-7-yl)-4-(pyridin-4-ylamino)benzamide]
